# Source: ChEMBL document CHEMBL1201861, “Genomics of Drug Sensitity in Cancer screening data, Wellcome Trust Sanger Institute”
# Experiments:
# Assay in all cases: cells
# Details in all cases: Homo sapiens
# NCI-H1838 = assay type: functional, cell-based;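 also: growth inhibition of NCI-H1838 cells, determined with a cell viability readout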
# Description: SANGER: Inhibition of human NCI-H1838 cell growth in a cell viability assay.
# KS-1 = assay type: functional, cell-based;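 also: growth inhibition of KS-1 cells, read out with a cell viability assay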
# Description: SANGER: Inhibition of human KS-1 cell growth in a cell viability assay.
# ETK-1 = assay type: functional, cell-based;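 also: growth inhibition of human ETK-1 cells, read out with a cell viability assay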
# Description: SANGER: Inhibition of human ETK-1 cell growth in a cell viability assay.
# LOX IMVI = assay type: functional, cell-based
# Description: SANGER: Inhibition of human LOXIMVI cell growth in a cell viability assay.
# MOLT-16 = assay type: functional, cell-based;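 also: growth inhibition of human MOLT-16 cells, read out with a cell viability assay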
# Description: SANGER: Inhibition of human MOLT-16 cell growth in a cell viability assay.
# RPMI-8226 = assay type: functional, cell-based
# Description: SANGER: Inhibition of human RPMI-8226 cell growth in a cell viability assay.
# MHH-PREB-1 = assay type: functional, cell-based;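 also: cell viability assay measuring inhibition of proliferation of human MHH-PREB-1 cells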
# Description: SANGER: Inhibition of human MHH-PREB-1 cell growth in a cell viability assay.
# LB831-BLC = assay type: functional, cell-based;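 also: growth inhibition of LB831-BLC cells, read out with a cell viability assay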
# Description: SANGER: Inhibition of human LB831-BLC cell growth in a cell viability assay.
# KMOE-2 = assay type: functional, cell-based;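 also: growth inhibition of human KMOE-2 cells, read out with a cell viability assay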
# Description: SANGER: Inhibition of human KMOE-2 cell growth in a cell viability assay.
# SK-PN-DW = assay type: functional, cell-based;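 also: growth inhibition measured with a viability assay on these cells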
# Description: SANGER: Inhibition of human SK-PN-DW cell growth in a cell viability assay.
# LS-513 = assay type: functional, cell-based
# Description: SANGER: Inhibition of human LS-513 cell growth in a cell viability assay.
# EC-GI-10 = assay type: functional, cell-based
# Description: SANGER: Inhibition of human EC-GI-10 cell growth in a cell viability assay.
# NTERA-2-cl-D1 = assay type: functional, cell-based;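 also: inhibition of cell growth, measured with a cell viability assay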
# Description: SANGER: Inhibition of human NTERA-S-cl-D1 cell growth in a cell viability assay.
# NOMO-1 = assay type: functional, cell-based;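 also: growth inhibition of human NOMO-1 cells measured by a cell viability assay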
# Description: SANGER: Inhibition of human NOMO-1 cell growth in a cell viability assay.
# OMC-1 = assay type: functional, cell-based;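 also: growth inhibition of the OMC-1 cell line, measured by a cell viability assay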
# Description: SANGER: Inhibition of human OMC-1 cell growth in a cell viability assay.
# J-RT3-T3-5 = assay type: functional, cell-based;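 also: cell viability assay measuring growth inhibition of human J-RT3-T3-5 cells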
# Description: SANGER: Inhibition of human J-RT3-T3-5 cell growth in a cell viability assay.
# HL-60 = assay type: functional, cell-based;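 also: growth inhibition of human HL-60 cells, read out with a cell viability assay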
# Description: SANGER: Inhibition of human HL-60 cell growth in a cell viability assay.
# 697 = assay type: functional, cell-based
# Description: SANGER: Inhibition of human 697 cell growth in a cell viability assay.
# IST-SL1 = assay type: functional, cell-based;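 also: growth inhibition of human IST-SL1 cells, read out with a cell viability assay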
# Description: SANGER: Inhibition of human IST-SL1 cell growth in a cell viability assay.
# GAK = assay type: functional, cell-based;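 also: cell growth inhibition read out by a cell viability assay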
# Description: SANGER: Inhibition of human GAK cell growth in a cell viability assay.
# GB-1 = assay type: functional, cell-based;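 also: growth of GB-1 cells judged by a viability assay, IC50 marks the concentration inhibiting growth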
# Description: SANGER: Inhibition of human GB-1 cell growth in a cell viability assay.
# KU812 cell line = assay type: functional, cell-based;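 also: growth inhibition of KU812 cells, read out with a cell viability assay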
# Description: SANGER: Inhibition of human KU812 cell growth in a cell viability assay.
# NCI-H1155 = assay type: functional, cell-based;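 also: cell growth inhibition measured by a viability assay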
# Description: SANGER: Inhibition of human NCI-H1155 cell growth in a cell viability assay.
# NCI-H1770 = assay type: functional, cell-based;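 also: growth inhibition of NCI-H1770 cells determined with a viability readout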
# Description: SANGER: Inhibition of human NCI-H1770 cell growth in a cell viability assay.
# KY821 = assay type: functional, cell-based;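 also: growth inhibition of human KY821 cells, read out by a cell viability assay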
# Description: SANGER: Inhibition of human KY821 cell growth in a cell viability assay.
# A704 = assay type: functional, cell-based;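 also: growth inhibition of human A704 cells, read out with a cell viability assay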
# Description: SANGER: Inhibition of human A704 cell growth in a cell viability assay.
# SK-MEL-2 = assay type: functional, cell-based;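 also: growth inhibition of human SK-MEL-2 cells measured with a cell viability assay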
# Description: SANGER: Inhibition of human SK-MEL-2 cell growth in a cell viability assay.
# MC116 = assay type: functional, cell-based;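 also: growth inhibition of MC116 cells, read out with a cell viability assay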
# Description: SANGER: Inhibition of human MC116 cell growth in a cell viability assay.
# LB1047-RCC = assay type: functional, cell-based;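 also: inhibition of cell growth, determined with a cell viability assay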
# Description: SANGER: Inhibition of human LB1047-RCC cell growth in a cell viability assay.
# JAR = assay type: functional, cell-based;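 also: growth inhibition of human JAR cells determined with a cell viability assay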
# Description: SANGER: Inhibition of human JAR cell growth in a cell viability assay.
# KNS-42 = assay type: functional, cell-based;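 also: growth inhibition of KNS-42 cells, read out with a cell viability assay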
# Description: SANGER: Inhibition of human KNS-42 cell growth in a cell viability assay.
# ES5 = assay type: functional, cell-based;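 also: growth inhibition of human ES5 cells, read out by a cell viability assay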
# Description: SANGER: Inhibition of human ES5 cell growth in a cell viability assay.
# SH-4 = assay type: functional, cell-based;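 also: growth inhibition of SH-4 cells, read out with a cell viability assay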
# Description: SANGER: Inhibition of human SH-4 cell growth in a cell viability assay.
# NCI-H1648 = assay type: functional, cell-based;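 also: cell viability assay measuring inhibition of NCI-H1648 cell growth, from the Sanger screening data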
# Description: SANGER: Inhibition of human NCI-H1648 cell growth in a cell viability assay.
# ES1 = assay type: functional, cell-based;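 also: growth inhibition of ES1 cells, read out with a cell viability assay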
# Description: SANGER: Inhibition of human ES1 cell growth in a cell viability assay.
# HCC2218 = assay type: functional, cell-based;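 also: cell viability assay read-out, with IC50 given as the concentration that inhibits growth of the cell line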
# Description: SANGER: Inhibition of human HCC2218 cell growth in a cell viability assay.
# NCI-H1355 = assay type: functional, cell-based;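 also: growth inhibition of human NCI-H1355 cells, read out by a cell viability assay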
# Description: SANGER: Inhibition of human NCI-H1355 cell growth in a cell viability assay.
# no-11 = assay type: functional, cell-based;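 also: growth inhibition of human NO-11 cells, read out with a cell viability assay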
# Description: SANGER: Inhibition of human no-11 cell growth in a cell viability assay.
# ES8 = assay type: functional, cell-based;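 also: growth inhibition of human ES8 cells, read out with a cell viability assay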
# Description: SANGER: Inhibition of human ES8 cell growth in a cell viability assay.
# DMS-79 = assay type: functional, cell-based;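 also: growth inhibition measured with a cell viability assay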
# Description: SANGER: Inhibition of human DMS-79 cell growth in a cell viability assay.
# MZ1-PC = assay type: functional, cell-based;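 also: cell viability assay measuring growth inhibition of human MZ1-PC cells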
# Description: SANGER: Inhibition of human MZ1-PC cell growth in a cell viability assay.
# KG-1 = assay type: functional, cell-based;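 also: growth inhibition of KG-1 cells, read out by a cell viability assay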
# Description: SANGER: Inhibition of human KG-1 cell growth in a cell viability assay.
# MN-60 = assay type: functional, cell-based;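 also: growth inhibition of the MN-60 cell line, determined with a cell viability assay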
# Description: SANGER: Inhibition of human MN-60 cell growth in a cell viability assay.
# Calu-6 = assay type: functional, cell-based;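 also: growth of human Calu-6 cells, read out by a cell viability assay, IC50 marking inhibition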
# Description: SANGER: Inhibition of human Calu-6 cell growth in a cell viability assay.
# SNU-C2B = assay type: functional, cell-based;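 also: cell viability readout used to measure compound-driven suppression of SNU-C2B cell proliferation, IC50 marking half-maximal growth inhibition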
# Description: SANGER: Inhibition of human SNU-C2B cell growth in a cell viability assay.
# Ramos-2G6-4C10 = assay type: functional, cell-based;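 also: growth inhibition of the cell line, measured by a cell viability read-out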
# Description: SANGER: Inhibition of human Ramos-2G6-4C10 cell growth in a cell viability assay.
# EOL1 = assay type: functional, cell-based;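 also: growth inhibition of EoL-1 cells, read out by a cell viability assay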
# Description: SANGER: Inhibition of human EoL-1-cell cell growth in a cell viability assay.
# SBC-1 = assay type: functional, cell-based;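 also: cell viability assay measuring growth inhibition of the SBC-1 cell line, IC50 being the concentration that halves growth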
# Description: SANGER: Inhibition of human SBC-1 cell growth in a cell viability assay.
# LAN-6 = assay type: functional, cell-based;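 also: growth inhibition of LAN-6 cells, determined with a cell viability assay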
# Description: SANGER: Inhibition of human LAN-6 cell growth in a cell viability assay.
# HDLM-2 = assay type: functional, cell-based;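 also: cell viability assay measuring suppression of HDLM-2 proliferation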
# Description: SANGER: Inhibition of human HDLM-2 cell growth in a cell viability assay.
# GOTO = assay type: functional, cell-based;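 also: growth inhibition of GOTO cells, read out by a cell viability assay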
# Description: SANGER: Inhibition of human GOTO cell growth in a cell viability assay.
# JVM-2 = assay type: functional, cell-based;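 also: growth inhibition of JVM-2 cells determined by a cell viability assay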
# Description: SANGER: Inhibition of human JVM-2 cell growth in a cell viability assay.
# OCUB-M = assay type: functional, cell-based;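 also: growth inhibition of the cancer cell line, read out through a cell viability assay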
# Description: SANGER: Inhibition of human OCUB-M cell growth in a cell viability assay.
# SNU1 = assay type: functional, cell-based
# Description: SANGER: Inhibition of human NCI-SNU-1 cell growth in a cell viability assay.
# TK-10 = assay type: functional, cell-based
# Description: SANGER: Inhibition of human TK10 cell growth in a cell viability assay.
# KARPAS-299 = assay type: functional, cell-based
# Description: SANGER: Inhibition of human KARPAS-299 cell growth in a cell viability assay.
# RXF 393 = assay type: functional, cell-based
# Description: SANGER: Inhibition of human RXF393 cell growth in a cell viability assay.
# SHP77 = assay type: functional, cell-based, SHP-77
# Description: SANGER: Inhibition of human SHP-77 cell growth in a cell viability assay.
# LU-134-A = assay type: functional, cell-based
# Description: SANGER: Inhibition of human LU-134-A cell growth in a cell viability assay.
# GI-1 = assay type: functional, cell-based
# Description: SANGER: Inhibition of human GI-1 cell growth in a cell viability assay.
# KLE = assay type: functional, cell-based
# Description: SANGER: Inhibition of human KLE cell growth in a cell viability assay.
# SW 954 = assay type: functional, cell-based
# Description: SANGER: Inhibition of human SW954 cell growth in a cell viability assay.
# C8166 = assay type: functional, cell-based
# Description: SANGER: Inhibition of human C8166 cell growth in a cell viability assay.
# SCH = assay type: functional, cell-based
# Description: SANGER: Inhibition of human SCH cell growth in a cell viability assay.
# NCI-H69 = assay type: functional, cell-based
# Description: SANGER: Inhibition of human NCI-H69 cell growth in a cell viability assay.
# GR-ST = assay type: functional, cell-based
# Description: SANGER: Inhibition of human GR-ST cell growth in a cell viability assay.
smiles,measurement,setting,value
Cc1n[nH]c2ccc(-c3cncc(OC[C@@H](N)Cc4c[nH]c5ccccc45)c3)cc12 [A-443654],IC50,NCI-H1838,> 1020 nM
same,IC50,KS-1,53.5 nM
same,IC50,ETK-1,101 nM
same,IC50,LOX IMVI,797 nM
same,IC50,MOLT-16,83.7 nM
same,IC50,RPMI-8226,670 nM
same,IC50,MHH-PREB-1,271 nM
same,IC50,LB831-BLC,194 nM
same,IC50,KMOE-2,> 1020 nM
same,IC50,SK-PN-DW,222 nM
same,IC50,LS-513,> 1020 nM
same,IC50,EC-GI-10,> 1020 nM
same,IC50,NTERA-2-cl-D1,27.6 nM
same,IC50,NOMO-1,561 nM
same,IC50,OMC-1,191 nM
same,IC50,J-RT3-T3-5,185 nM
same,IC50,HL-60,500 nM
same,IC50,697,32.8 nM
same,IC50,IST-SL1,434 nM
same,IC50,GAK,> 1020 nM
same,IC50,GB-1,199 nM
same,IC50,KU812 cell line,96.5 nM
same,IC50,NCI-H1155,564 nM
same,IC50,NCI-H1770,> 1020 nM
same,IC50,KY821,246 nM
same,IC50,A704,261 nM
same,IC50,SK-MEL-2,833 nM
same,IC50,MC116,137 nM
same,IC50,LB1047-RCC,87.2 nM
same,IC50,JAR,156 nM
same,IC50,KNS-42,248 nM
same,IC50,ES5,> 1020 nM
same,IC50,SH-4,185 nM
same,IC50,NCI-H1648,183 nM
same,IC50,ES1,739 nM
same,IC50,HCC2218,266 nM
same,IC50,NCI-H1355,113 nM
same,IC50,no-11,130 nM
same,IC50,ES8,151 nM
same,IC50,DMS-79,750 nM
same,IC50,MZ1-PC,79.5 nM
same,IC50,KG-1,> 1020 nM
same,IC50,MN-60,487 nM
same,IC50,Calu-6,137 nM
same,IC50,SNU-C2B,290 nM
same,IC50,Ramos-2G6-4C10,170 nM
same,IC50,EOL1,165 nM
same,IC50,SBC-1,160 nM
same,IC50,LAN-6,886 nM
same,IC50,HDLM-2,> 1020 nM
same,IC50,GOTO,366 nM
same,IC50,JVM-2,> 1020 nM
same,IC50,OCUB-M,25.7 nM
same,IC50,SNU1,400 nM
same,IC50,TK-10,226 nM
same,IC50,KARPAS-299,473 nM
same,IC50,RXF 393,657 nM
same,IC50,SHP77,> 1020 nM
same,IC50,LU-134-A,363 nM
same,IC50,GI-1,187 nM
same,IC50,KLE,226 nM
same,IC50,SW 954,177 nM
same,IC50,C8166,> 1020 nM
same,IC50,SCH,> 1020 nM
same,IC50,NCI-H69,318 nM
same,IC50,GR-ST,448 nM
